# Experimental data reported in patent US6525001B1, “Substituted pyrimidine and pyridine herbicides” (Mid-American Commercialization Corporation, priority 1997, dated 2003).
# Legend:
# Type in all cases: in vivo
# [1] = tested on: sandbur (Cenchrus echinatus); assay: Test E pre-/postemergence/post directed; settings: PREEMERGENCE
# How it was run: (§1)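 Three application modes in greenhouse pots: preemergence soil spray, postemergence foliar spray at two to four leaves, and post-directed spray to soil and plant base. Ratings of 0–100 injury, assigned visually against untreated controls 13 to 21 days later.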
# [2] = tested on: Spanishneedles (Bidens bipinnata); assay: Test E pre-/postemergence/post directed; settings: PREEMERGENCE
# How it was run: as §1
# [3] = tested on: large crabgrass (Digitaria sanguinalis); assay: Test E pre-/postemergence/post directed; settings: PREEMERGENCE
# How it was run: as §1
# [4] = tested on: itchgrass (Rottboellia exaltata); assay: Test E pre-/postemergence/post directed; settings: PREEMERGENCE
# How it was run: as §1
# [5] = tested on: common ragweed (Ambrosia elatior); assay: Test E pre-/postemergence/post directed; settings: PREEMERGENCE
# How it was run: as §1
# [6] = tested on: pitted morningglory (Ipomoea lacunosa); assay: Test E pre-/postemergence/post directed; settings: PREEMERGENCE
# How it was run: as §1
# [7] = tested on: bermudagrass (Cynodon dactylon); assay: Test E pre-/postemergence/post directed; settings: PREEMERGENCE
# How it was run: as §1
# [8] = tested on: common purslane (Portulaca oleracea); assay: Test E pre-/postemergence/post directed; parameters: key: 0 is no effect; 100 is complete control; settings: PREEMERGENCE
# How it was run: as §1
# [9] = tested on: guineagrass (Panicum maximum); assay: Test E pre-/postemergence/post directed; parameters: key: 0 is no effect; 100 is complete control; settings: PREEMERGENCE
# How it was run: as §1
# [10] = tested on: tall mallow (Malva sylvestris); assay: Test E pre-/postemergence/post directed; parameters: key: 0 is no effect; 100 is complete control; settings: PREEMERGENCE
# How it was run: as §1
# [11] = tested on: large crabgrass (Digitaria sanguinalis); assay: Test E pre-/postemergence/post directed; parameters: key: 0 is no effect; 100 is complete control; settings: PREEMERGENCE
# How it was run: as §1
# [12] = tested on: common ragweed (Ambrosia elatior); assay: Test E pre-/postemergence/post directed; parameters: key: 0 is no effect; 100 is complete control; settings: PREEMERGENCE, Rate 250 g/ha
# How it was run: as §1
# [13] = tested on: common groundsel (Senecio vulgaris); assay: Test E pre-/postemergence/post directed; parameters: key: 0 is no effect; 100 is complete control; settings: PREEMERGENCE
# How it was run: as §1
# [14] = tested on: dallisgrass (Paspalum dilatatum); assay: Test E pre-/postemergence/post directed; parameters: key: 0 is no effect; 100 is complete control; settings: PREEMERGENCE
# How it was run: as §1
# [15] = tested on: bermudagrass (Cynodon dactylon); assay: Test E pre-/postemergence/post directed; parameters: key: 0 is no effect; 100 is complete control; settings: PREEMERGENCE
# How it was run: as §1
# [16] = tested on: sourgrass (Trichachne insularis); assay: Test E pre-/postemergence/post directed; parameters: key: 0 is no effect; 100 is complete control; settings: PREEMERGENCE
# How it was run: as §1
# [17] = tested on: barnyardgrass (Echinochloa crus-galli); assay: Test C; settings: PREEMERGENCE
# [18] = tested on: ladysthumb smartweed (Polygonum persicaria); assay: Test C; settings: PREEMERGENCE
# [19] = tested on: cotton (Gossypium hirsutum); assay: Test C; parameters: key: 0 was no effect; 100 was complete control; settings: PREEMERGENCE
structure (smiles),measurement,setting,value
CCc1cnc(-n2ccc(C(F)(F)F)n2)nc1Cc1cccc(C(F)(F)F)c1 [Compound 46],"Plant response rating, Sandbur",[1]; Rate 64 g/ha,10
same,"Plant response rating, Sandbur",[1]; Rate 125 g/ha,10
same,"Plant response rating, Sandbur",[1]; Rate 250 g/ha,30
same,"Plant response rating, Spanishneedles",[2]; Rate 32 g/ha,65
same,"Plant response rating, Spanishneedles",[2]; Rate 64 g/ha,85
same,"Plant response rating, Spanishneedles",[2]; Rate 125 g/ha,90
same,"Plant response rating, Spanishneedles",[2]; Rate 250 g/ha,90
same,"Plant response rating, Large crabgrass",[3]; Rate 32 g/ha,90
same,"Plant response rating, Large crabgrass",[3]; Rate 64 g/ha,98
same,"Plant response rating, Itchgrass",[4]; Rate 125 g/ha,40
same,"Plant response rating, Itchgrass",[4]; Rate 250 g/ha,40
same,"Plant response rating, Com. ragweed",[5]; Rate 64 g/ha,98
same,"Plant response rating, Com. ragweed",[5]; Rate 125 g/ha,98
same,"Plant response rating, P. morninglory",[6]; Rate 32 g/ha,65
same,"Plant response rating, P. morninglory",[6]; Rate 64 g/ha,65
same,"Plant response rating, P. morninglory",[6]; Rate 125 g/ha,65
same,"Plant response rating, P. morninglory",[6]; Rate 250 g/ha,65
same,"Plant response rating, Bermudagrass",[7]; Rate 32 g/ha,70
same,"Plant response rating, Bermudagrass",[7]; Rate 64 g/ha,98
same,"Plant response rating, Com. purslane",[8]; Rate 32 g/ha,100
same,"Plant response rating, Com. purslane",[8]; Rate 64 g/ha,100
same,"Plant response rating, Com. purslane",[8]; Rate 125 g/ha,100
same,"Plant response rating, Com. purslane",[8]; Rate 250 g/ha,100
same,"Plant response rating, Guineagrass",[9]; Rate 32 g/ha,60
same,"Plant response rating, Guineagrass",[9]; Rate 64 g/ha,85
same,"Plant response rating, Guineagrass",[9]; Rate 125 g/ha,100
same,"Plant response rating, Guineagrass",[9]; Rate 250 g/ha,98
same,"Plant response rating, Tall Mallow",[10]; Rate 32 g/ha,100
same,"Plant response rating, Tall Mallow",[10]; Rate 64 g/ha,100
same,"Plant response rating, Tall Mallow",[10]; Rate 125 g/ha,100
same,"Plant response rating, Tall Mallow",[10]; Rate 250 g/ha,100
same,"Plant response rating, Large crabgrass",[11]; Rate 125 g/ha,100
same,"Plant response rating, Large crabgrass",[11]; Rate 250 g/ha,100
same,"Plant response rating, Com. ragweed",[12],100
same,"Plant response rating, Com. groundsel",[13]; Rate 32 g/ha,100
same,"Plant response rating, Com. groundsel",[13]; Rate 64 g/ha,100
same,"Plant response rating, Com. groundsel",[13]; Rate 125 g/ha,100
same,"Plant response rating, Com. groundsel",[13]; Rate 250 g/ha,100
same,"Plant response rating, Dallisgrass",[14]; Rate 32 g/ha,65
same,"Plant response rating, Dallisgrass",[14]; Rate 64 g/ha,98
same,"Plant response rating, Dallisgrass",[14]; Rate 125 g/ha,100
same,"Plant response rating, Dallisgrass",[14]; Rate 250 g/ha,100
same,"Plant response rating, Bermudagrass",[15]; Rate 125 g/ha,100
same,"Plant response rating, Bermudagrass",[15]; Rate 250 g/ha,100
same,"Plant response rating, Sourgrass",[16]; Rate 32 g/ha,98
same,"Plant response rating, Sourgrass",[16]; Rate 64 g/ha,100
same,"Plant response rating, Sourgrass",[16]; Rate 125 g/ha,100
same,"Plant response rating, Sourgrass",[16]; Rate 250 g/ha,100
same,"Plant response rating, Barnyardgrass",[17]; Rate 35 g/ha,5
same,"Plant response rating, Barnyardgrass",[17]; Rate 70 g/ha,10
same,"Plant response rating, Barnyardgrass",[17]; Rate 140 g/ha,50
same,"Plant response rating, Ladysthumb",[18]; Rate 35 g/ha,25
same,"Plant response rating, Ladysthumb",[18]; Rate 70 g/ha,10
same,"Plant response rating, Ladysthumb",[18]; Rate 140 g/ha,50
same,"Plant response rating, Cotton",[19]; Rate 35 g/ha,0
same,"Plant response rating, Cotton",[19]; Rate 70 g/ha,5
same,"Plant response rating, Cotton",[19]; Rate 140 g/ha,40
